Laboratory results taken from patent publication US10941157B2, “Pesticidal compositions and uses thereof” (Gilead Apollo, LLC, priority 2015, dated 2021).
In brackets after ≈: the same amount, converted by molar mass. Where two headings read alike, the source gives them in different places.

Experiments:
Assay type in all cases: cell-based
[1] = system: Fusarium moniliforme (Fm); assay: In vitro pathogen growth inhibition assay, Fm; conditions: Fusarium verticillioides
Procedure, shortened: (§1)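 Value reported is the compound concentration reaching ≥90% growth inhibition, from OD readings at 24 and 48 h after blank subtraction, confirmed visually. Inoculum was spores diluted in 17% V8 medium, except Rs, using 1.5 mm mycelial plugs in ¼ PDB; actual compound concentration corrected via OD600.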

[2] = system: Collectotrichum graminicola (Cg); assay: In vitro pathogen growth inhibition assay, Cg; conditions: 48 h
Procedure, shortened: as §1

[3] = system: Septoria tritici (St); assay: In vitro pathogen growth inhibition assay, St; conditions: Zymoseptoria tritici, 48 h
Procedure, shortened: as §1

[4] = system: Botrtyis cinerea (Bc); assay: In vitro pathogen growth inhibition assay, Bc; conditions: 48 h
Procedure, shortened: as §1

[5] = system: Rhizoctonia solani (Rs); assay: In vitro pathogen growth inhibition assay, Rs (mycelial plugs); conditions: Rhizoctonia solani, 48 h
Procedure, shortened: (§2)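 Spores of Dm, Fv and Pc were diluted in 17% V8 liquid medium; Rs used 1.5 mm mycelial plugs in ¼ PDB. Compounds from 2.5 mg/ml DMSO stocks were combined with inoculum, growth was read by OD600 at 24 and 48 h with blank subtraction, and the reported value is the concentration giving ≥90% inhibition.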

[6] = system: Diplodia maydis (Dm); assay: In vitro pathogen growth inhibition assay, Dm; conditions: Stenocarpella maydis, 48 h
Procedure, shortened: as §2

[7] = system: Fusarium virguliforme (Fv); assay: In vitro pathogen growth inhibition assay, Fv
Procedure, shortened: as §2

[8] = system: Phytophthora capsici (Pc); assay: In vitro pathogen growth inhibition assay, Pc; conditions: 48 h
Procedure, shortened: as §2

[9] = ≥90% inhibition, 48 hours vs 2% DMSO control, read-out: Compound Concentration (ppm) sufficient for ≥90% inhibition of growth, Fm
[10] = ≥90% inhibition, 48 hours vs 2% DMSO control, read-out: Compound Concentration (ppm) sufficient for ≥90% inhibition of growth, Cg
[11] = ≥90% inhibition, 48 hours vs 2% DMSO control, read-out: Compound Concentration (ppm) sufficient for ≥90% inhibition of growth, St
[12] = ≥90% inhibition, 48 hours vs 2% DMSO control, read-out: Compound Concentration (ppm) sufficient for ≥90% inhibition of growth, Bc
[13] = ≥90% inhibition, mycelial plugs, 48 hours vs 2% DMSO control, read-out: Compound Concentration (ppm) sufficient for ≥90% inhibition of growth, Rs
[14] = ≥90% inhibition, 48 hours vs 2% DMSO control, read-out: Compound Concentration (ppm) sufficient for ≥90% inhibition of growth, Dm
[15] = ≥90% inhibition, 48 hours vs 2% DMSO control, read-out: Compound Concentration (ppm) sufficient for ≥90% inhibition of growth, Fv
[16] = ≥90% inhibition, 48 hours vs 2% DMSO control, read-out: Compound Concentration (ppm) sufficient for ≥90% inhibition of growth, Pc
[17] = ≥90% growth inhibition, 48 hours, vs 2% DMSO control, read-out: Compound Concentration (ppm) sufficient for ≥90% inhibition of Fm
[18] = ≥90% growth inhibition, 48 hours, vs 2% DMSO control, read-out: Compound Concentration (ppm) sufficient for ≥90% inhibition of Cg
[19] = ≥90% growth inhibition, 48 hours, vs 2% DMSO control, read-out: Compound Concentration (ppm) sufficient for ≥90% inhibition of St
[20] = ≥90% growth inhibition, 48 hours, vs 2% DMSO control, read-out: Compound Concentration (ppm) sufficient for ≥90% inhibition of Bc
[21] = ≥90% growth inhibition, mycelial plugs, 48 hours, vs 2% DMSO control, read-out: Compound Concentration (ppm) sufficient for ≥90% inhibition of Rs
[22] = ≥90% growth inhibition, 48 hours, vs 2% DMSO control, read-out: Compound Concentration (ppm) sufficient for ≥90% inhibition of Dm
[23] = ≥90% growth inhibition, 48 hours, vs 2% DMSO control, read-out: Compound Concentration (ppm) sufficient for ≥90% inhibition of Fv
[24] = ≥90% growth inhibition, 48 hours, vs 2% DMSO control, read-out: Compound Concentration (ppm) sufficient for ≥90% inhibition of Pc

SMILES	IC90 [1, 9]	IC90 [2, 10]	IC90 [3, 11]	IC90 [4, 12]	IC90 [5, 13]	IC90 [6, 14]	IC90 [7, 15]	IC90 [8, 16]	IC90 [1, 17]	IC90 [2, 18]	IC90 [3, 19]	IC90 [4, 20]	IC90 [5, 21]	IC90 [6, 22]	IC90 [7, 23]	IC90 [8, 24]	further results
COc1ccc(F)cc1[C@H](Cn1c(=O)n(C(C)(C)C(=O)N2CCCCC2)c(=O)c2c(C)c(-n3nccn3)sc21)OC1CCC(=O)CC1 [Compound I-052]	0.08 µg/mL (≈ 0.12 µM)	≥ 0.4 µg/mL	> 50 µg/mL	0.4 µg/mL (≈ 0.6 µM)	2 µg/mL (≈ 3 µM)	2 µg/mL (≈ 3 µM)	0.4 µg/mL (≈ 0.6 µM)	> 50 µg/mL									
CCNC(=O)C(C)(C)n1c(=O)c2c(C)c(-n3nccn3)sc2n(C[C@H](OCC(C)C)c2cc(F)ccc2OC)c1=O [Compound I-025]	0.08 µg/mL (≈ 0.136 µM)	0.4 µg/mL (≈ 0.682 µM)	> 10 µg/mL	0.4 µg/mL (≈ 0.682 µM)	0.4 µg/mL (≈ 0.682 µM)	0.4 µg/mL (≈ 0.682 µM)	0.4 µg/mL (≈ 0.682 µM)	> 50 µg/mL									
COc1ccc(F)cc1[C@H](Cn1c(=O)n(C(C)(C)C(=O)N2CC=CC2)c(=O)c2c(C)c(-n3nccn3)sc21)OC1CCOCC1 [Compound I-075]	0.08 µg/mL (≈ 0.125 µM)	0.4 µg/mL (≈ 0.626 µM)	> 50 µg/mL	2 µg/mL (≈ 3.13 µM)	0.08 µg/mL (≈ 0.125 µM)	0.4 µg/mL (≈ 0.626 µM)	0.4 µg/mL (≈ 0.626 µM)	> 50 µg/mL									
CCOC(=O)c1sc2c(c1C)c(=O)n(C(C)(C)C(N)=O)c(=O)n2C[C@H](OC1CCOCC1)c1ccccc1OC [Compound I-174]																	IC90 ([1]; concentration sufficient to ≥90% inhibition of growth, 48 hours vs 2% DMSO control, read-out: Compound Concentration (ppm) for ≥90% inhibition, Fm): 10 µg/mL (≈ 17.4 µM); IC90 ([2]; concentration sufficient to ≥90% inhibition of growth, 48 hours vs 2% DMSO control, read-out: Compound Concentration (ppm) for ≥90% inhibition, Cg): 50 µg/mL (≈ 87.2 µM); IC90 ([3]; concentration sufficient to ≥90% inhibition of growth, 48 hours vs 2% DMSO control, read-out: Compound Concentration (ppm) for ≥90% inhibition, St): > 50 µg/mL; IC90 ([4]; concentration sufficient to ≥90% inhibition of growth, 48 hours vs 2% DMSO control, read-out: Compound Concentration (ppm) for ≥90% inhibition, Bc): 10 µg/mL (≈ 17.4 µM); IC90 ([5]; concentration sufficient to ≥90% inhibition of growth, 48 hours vs 2% DMSO control, read-out: Compound Concentration (ppm) for ≥90% inhibition, Rs): 50 µg/mL (≈ 87.2 µM); IC90 ([6]; concentration sufficient to ≥90% inhibition of growth, 48 hours vs 2% DMSO control, read-out: Compound Concentration (ppm) for ≥90% inhibition, Dm): 10 µg/mL (≈ 17.4 µM); IC90 ([7]; concentration sufficient to ≥90% inhibition of growth, 48 hours vs 2% DMSO control, read-out: Compound Concentration (ppm) for ≥90% inhibition, Fv): 10 µg/mL (≈ 17.4 µM); IC90 ([8]; concentration sufficient to ≥90% inhibition of growth, 48 hours vs 2% DMSO control, read-out: Compound Concentration (ppm) for ≥90% inhibition, Pc): > 50 µg/mL
COc1ccc(F)cc1[C@H](Cn1c(=O)n(C(C)(C)C(N)=O)c(=O)c2c(C)c(-n3nccn3)sc21)OCC(C)C [Compound I-165]									≥ 0.08 µg/mL	2 µg/mL (≈ 3.58 µM)	> 50 µg/mL	2 µg/mL (≈ 3.58 µM)	2 µg/mL (≈ 3.58 µM)	2 µg/mL (≈ 3.58 µM)	2 µg/mL (≈ 3.58 µM)	> 50 µg/mL	
COc1ccc(F)cc1[C@H](Cn1c(=O)n(C(C)(C)C(=O)N2CCCC2)c(=O)c2c(C)c(-c3ncco3)sc21)OC(C)C [Compound I-017]	0.08 µg/mL (≈ 0.134 µM)	0.08 µg/mL (≈ 0.134 µM)	> 10 µg/mL	0.4 µg/mL (≈ 0.668 µM)	0.4 µg/mL (≈ 0.668 µM)	≥ 0.08 µg/mL	0.4 µg/mL (≈ 0.668 µM)	> 50 µg/mL									
COc1ccc(F)cc1[C@H](Cn1c(=O)n(C(C)(C)C(=O)N2CCOCC2)c(=O)c2c(C)c(-n3nccn3)sc21)OC(C)C [Compound I-021]	0.08 µg/mL (≈ 0.13 µM)	2 µg/mL (≈ 3.25 µM)	> 10 µg/mL	0.4 µg/mL (≈ 0.651 µM)	0.4 µg/mL (≈ 0.651 µM)	2 µg/mL (≈ 3.25 µM)	0.4 µg/mL (≈ 0.651 µM)	> 50 µg/mL									
COCCO[C@@H](Cn1c(=O)n(C(C)(C)C(=O)N2CCCC2)c(=O)c2c(C)c(-n3nccn3)sc21)c1cc(F)ccc1OC [Compound I-164]									2 µg/mL (≈ 3.25 µM)	10 µg/mL (≈ 16.3 µM)	> 50 µg/mL	50 µg/mL (≈ 81.3 µM)	50 µg/mL (≈ 81.3 µM)	10 µg/mL (≈ 16.3 µM)	2 µg/mL (≈ 3.25 µM)	> 50 µg/mL	

The next lines start with results.

IC90 [1, 9]	IC90 [2, 10]	IC90 [3, 11]	IC90 [4, 12]	IC90 [5, 13]	IC90 [6, 14]	IC90 [7, 15]	IC90 [8, 16]	IC90 [1, 17]	IC90 [2, 18]	IC90 [3, 19]	IC90 [4, 20]	IC90 [5, 21]	IC90 [6, 22]	IC90 [7, 23]	IC90 [8, 24]	SMILES	further results
								0.08 µg/mL (≈ 0.144 µM)	10 µg/mL (≈ 18 µM)	> 50 µg/mL	2 µg/mL (≈ 3.59 µM)	10 µg/mL (≈ 18 µM)	2 µg/mL (≈ 3.59 µM)	0.08 µg/mL (≈ 0.144 µM)	> 50 µg/mL	Cc1c(-n2nccn2)sc2c1c(=O)n(C(C)(C)C(=O)NC(C)C)c(=O)n2CCc1cc(F)ccc1OC(C)C [Compound I-338]	
								2 µg/mL (≈ 3.75 µM)	10 µg/mL (≈ 18.7 µM)	> 50 µg/mL	2 µg/mL (≈ 3.75 µM)	> 50 µg/mL	≥ 10 µg/mL	2 µg/mL (≈ 3.75 µM)	> 50 µg/mL	CCOC(=O)c1sc2c(c1C)c(=O)n(C(C)(C)C(=O)NC(C)C)c(=O)n2CCc1cc(F)ccc1OC [Compound I-298]	
								0.08 µg/mL (≈ 0.131 µM)	2 µg/mL (≈ 3.26 µM)	> 50 µg/mL	0.4 µg/mL (≈ 0.653 µM)	2 µg/mL (≈ 3.26 µM)	≥ 2 µg/mL	2 µg/mL (≈ 3.26 µM)	> 50 µg/mL	CCOC(=O)c1sc2c(c1C)c(=O)n(C(C)(C)C(=O)NC(C)C)c(=O)n2C[C@H](OCC(C)(C)C#N)c1ccccc1OC [Compound I-303]	
								0.4 µg/mL (≈ 0.685 µM)	10 µg/mL (≈ 17.1 µM)	≥ 50 µg/mL	0.4 µg/mL (≈ 0.685 µM)	0.4 µg/mL (≈ 0.685 µM)	10 µg/mL (≈ 17.1 µM)	≥ 2 µg/mL	> 50 µg/mL	COc1ccc(F)cc1[C@H](Cn1c(=O)n([C@@H](C)C(=O)NC(C)C)c(=O)c2c(C)c(-n3nccn3)sc21)OCCC#N [Compound I-197]	
